Test results: patent US8962842B2, “2-pyridone antimicrobial compositions” (priority 2010, dated 2015)

Legend:
[1] = test system: Bacterial strains injected into thigh muscles; format: in vivo, mice; conditions: MRSA ATCC 43300, mouse thigh, 20 mg/kg i.v. TDS
human topoisomerase I = molecular target: T1, human topoisomerase I (Homo sapiens, UniProt P11387); assay: Inhibition of topoisomerases activity in vitro, Topogen protocol TG1015 (Table 7); format: biochemical; conditions: read-out: IC50 hTopo I Assay
T1 construct: purchased Topogen Inc., Port Orange, USA TG1015
T1 sequence (P11387 1-765): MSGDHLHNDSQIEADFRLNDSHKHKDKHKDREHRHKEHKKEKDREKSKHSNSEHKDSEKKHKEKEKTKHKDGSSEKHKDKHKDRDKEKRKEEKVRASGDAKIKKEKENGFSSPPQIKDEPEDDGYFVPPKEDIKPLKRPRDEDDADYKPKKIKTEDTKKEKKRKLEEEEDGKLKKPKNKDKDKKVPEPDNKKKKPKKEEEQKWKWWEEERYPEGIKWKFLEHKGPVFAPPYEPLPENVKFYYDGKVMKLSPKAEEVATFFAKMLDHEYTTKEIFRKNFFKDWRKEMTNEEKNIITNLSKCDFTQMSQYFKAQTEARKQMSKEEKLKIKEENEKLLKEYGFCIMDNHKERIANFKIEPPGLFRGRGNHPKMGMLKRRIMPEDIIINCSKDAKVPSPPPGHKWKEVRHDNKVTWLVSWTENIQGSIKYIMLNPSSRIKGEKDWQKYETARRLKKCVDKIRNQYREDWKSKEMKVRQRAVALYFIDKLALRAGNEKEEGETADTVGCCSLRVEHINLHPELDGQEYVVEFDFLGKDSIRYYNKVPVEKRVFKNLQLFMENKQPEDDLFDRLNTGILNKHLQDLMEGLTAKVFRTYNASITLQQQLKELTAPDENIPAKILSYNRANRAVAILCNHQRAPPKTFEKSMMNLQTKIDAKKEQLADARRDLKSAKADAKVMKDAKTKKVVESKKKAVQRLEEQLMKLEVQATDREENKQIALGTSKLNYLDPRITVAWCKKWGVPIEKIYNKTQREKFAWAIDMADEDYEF

IC50 (human topoisomerase I): > 150 µM
SMILES: O=C(O)c1cn(C2CC2)c2cc(N3CCNCC3)c(F)cc2c1=O [Ciprofloxacin, reference compound]
Log reduction (LgR) from vehicle control (CFU/g) [1]: 2.36
